Reference: ChEMBL document CHEMBL1201862, “PubChem BioAssay data set” (2004)
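These data come from cells grown in 96-well plates and exposed to compound for 48 hours at five concentrations. GI50: concentration for 50% inhibition of growth.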 Calls of active or inactive are those of the source. No stated cut-off is given here; in the data, active = GI50 up to about 1.1 µM and inactive = higher.

Experiments:
Experiment in all cases: inhibition of tumour cell growth, NCI panel, 48 h
[1] = system: KM12
[2] = system: 786-0
[3] = system: UO-31
[4] = system: SF-268
[5] = system: SK-MEL-28
[6] = system: SN12C
[7] = system: T47D
[8] = system: OVCAR-3
[9] = system: RXF 393
[10] = system: MDA-MB-435
[11] = system: ACHN
[12] = system: U-251
[13] = system: MCF7
[14] = system: EKVX
[15] = system: HT-29
[16] = system: K562
[17] = system: HL-60
[18] = system: COLO 205
[19] = system: M14
[20] = system: HCT-15
[21] = system: SK-OV-3
[22] = system: SF-295
[23] = system: PC-3
[24] = system: OVCAR-4
[25] = system: A549
[26] = system: DU-145
[27] = system: BT-549
[28] = system: TK-10
[29] = system: OVCAR-5
[30] = system: IGROV-1
[31] = system: LOX IMVI
[32] = system: HCT-116
[33] = system: NCI/ADR-RES
[34] = system: CAKI-1
[35] = system: MDA-MB-231
[36] = system: SK-MEL-5
[37] = system: OVCAR-8
[38] = system: CCRF-CEM
[39] = system: NCI-H460
[40] = system: NCI-H23
[41] = system: RPMI-8226
[42] = system: SNB-19
[43] = system: Hs-578T
[44] = system: MOLT-4
[45] = system: HOP-62
[46] = system: SR
[47] = system: MDA-N
[48] = system: UACC-257
[49] = system: UACC-62
[50] = system: NCI-H522
[51] = system: NCI-H226
[52] = system: HOP-92
[53] = system: SF-539
[54] = system: SK-MEL-2
[55] = system: SNB-75
[56] = system: SW-620
[57] = system: Malme-3M
[58] = system: HCC 2998
[59] = system: A498

With `OC(c1ccc(-c2ccccc2)cc1)(c1ccc(-c2ccccc2)cc1)c1ccc(-c2ccccc2)cc1` the GI50 [1] was > 100 µM (inactive), the GI50 [2] was > 100 µM (inactive) and the GI50 [3] was > 100 µM (inactive). For the same molecule, the GI50 [4] was > 100 µM (inactive), the GI50 [5] was > 100 µM (inactive) and the GI50 [6] was > 100 µM (inactive). The GI50 [7] was > 100 µM (inactive), the GI50 [8] was > 100 µM (inactive) and the GI50 [9] was > 100 µM (inactive). The GI50 [10] was > 100 µM (inactive), the GI50 [11] was > 100 µM (inactive) and the GI50 [12] was > 100 µM (inactive). For the same molecule, the GI50 [13] was > 100 µM (inactive), the GI50 [14] was > 100 µM (inactive) and the GI50 [15] was > 100 µM (inactive). The GI50 [16] was > 100 µM (inactive), the GI50 [17] was > 10 µM (inactive) and the GI50 [18] was > 100 µM (inactive). The GI50 [19] was 52.7 µM (inactive), the GI50 [20] was 4.56 µM and the GI50 [21] was > 100 µM (inactive). For the same molecule, the GI50 [22] was > 100 µM (inactive), the GI50 [23] was > 100 µM (inactive) and the GI50 [24] was > 100 µM (inactive). For the same molecule, the GI50 [25] was > 100 µM (inactive), the GI50 [26] was > 100 µM (inactive) and the GI50 [27] was > 100 µM (inactive). For the same molecule, the GI50 [28] was > 100 µM (inactive), the GI50 [29] was > 100 µM (inactive) and the GI50 [30] was > 100 µM (inactive). For the same molecule, the GI50 [31] was > 100 µM (inactive), the GI50 [32] was > 100 µM (inactive) and the GI50 [33] was > 100 µM (inactive). For the same molecule, the GI50 [34] was > 100 µM (inactive), the GI50 [35] was 53.7 µM (inactive) and the GI50 [36] was > 100 µM (inactive). For the same molecule, the GI50 [37] was > 100 µM (inactive), the GI50 [38] was > 10 µM (inactive) and the GI50 [39] was > 100 µM (inactive). For the same molecule, the GI50 [40] was > 100 µM (inactive), the GI50 [41] was > 100 µM (inactive) and the GI50 [42] was > 100 µM (inactive). The GI50 [43] was > 100 µM (inactive), the GI50 [44] was 28.6 µM (inactive) and the GI50 [45] was > 100 µM (inactive). The GI50 [46] was > 100 µM (inactive), the GI50 [47] was > 100 µM (inactive) and the GI50 [48] was > 100 µM (inactive). The GI50 [49] was > 100 µM (inactive) and the GI50 [50] was > 100 µM (inactive).
`O=C1c2ccccc2-c2nc(-c3cccc([N+](=O)[O-])c3)nnc21` was tested, and the GI50 [51] was 7.91 µM (inactive), the GI50 [1] was 8 µM (inactive) and the GI50 [2] was 30.5 µM (inactive). The GI50 [3] was 12.3 µM (inactive), the GI50 [4] was 43.1 µM (inactive) and the GI50 [6] was 21.4 µM (inactive). For the same molecule, the GI50 [7] was 44.5 µM (inactive), the GI50 [9] was 24.3 µM (inactive) and the GI50 [52] was > 100 µM (inactive). The GI50 [10] was 1.97 µM (inactive), the GI50 [11] was 3.98 µM (inactive) and the GI50 [53] was 22.6 µM (inactive). The GI50 [12] was 4.5 µM (inactive), the GI50 [13] was 11.4 µM (inactive) and the GI50 [14] was 7.38 µM (inactive). The GI50 [15] was 1.82 µM (inactive), the GI50 [16] was 5.94 µM (inactive) and the GI50 [17] was 3.07 µM (inactive). For the same molecule, the GI50 [18] was 3.91 µM (inactive), the GI50 [19] was 23 µM (inactive) and the GI50 [20] was 15.7 µM. The GI50 [21] was > 100 µM (inactive), the GI50 [22] was 1.56 µM (inactive) and the GI50 [23] was 40.2 µM (inactive). The GI50 [24] was 15.4 µM (inactive), the GI50 [25] was 4.62 µM (inactive) and the GI50 [26] was 4.25 µM (inactive). The GI50 [27] was 19.5 µM (inactive), the GI50 [28] was 18.7 µM (inactive) and the GI50 [29] was 20.1 µM (inactive). For the same molecule, the GI50 [30] was 28.8 µM (inactive), the GI50 [54] was 18.9 µM (inactive) and the GI50 [32] was 23.1 µM (inactive). The GI50 [33] was 13.4 µM (inactive), the GI50 [34] was 4.24 µM (inactive) and the GI50 [35] was 16.6 µM (inactive). For the same molecule, the GI50 [36] was 2.69 µM (inactive), the GI50 [55] was 21.4 µM (inactive) and the GI50 [37] was 11.4 µM (inactive). The GI50 [38] was 7.14 µM (inactive), the GI50 [39] was 3.96 µM (inactive) and the GI50 [56] was 15.8 µM (inactive). The GI50 [40] was 17.6 µM (inactive), the GI50 [41] was 2.94 µM (inactive) and the GI50 [42] was 13.9 µM (inactive). The GI50 [43] was 12.4 µM (inactive), the GI50 [44] was 9.73 µM (inactive) and the GI50 [46] was 1.11 µM (active). The GI50 [47] was 2.54 µM (inactive), the GI50 [48] was 3.24 µM (inactive) and the GI50 [49] was 9.12 µM (inactive). For the same molecule, the GI50 [57] was 17.5 µM (inactive) and the GI50 [50] was 26.5 µM (inactive).
For `O=C(O)c1ccccc1/C=N\N=C1NCCN1`, the GI50 [51] was 21.6 µM (inactive), the GI50 [1] was > 100 µM (inactive) and the GI50 [2] was > 100 µM (inactive). The GI50 [3] was 40.9 µM (inactive), the GI50 [4] was > 100 µM (inactive) and the GI50 [6] was > 100 µM (inactive). For the same molecule, the GI50 [7] was > 100 µM (inactive), the GI50 [8] was > 100 µM (inactive) and the GI50 [52] was > 100 µM (inactive). For the same molecule, the GI50 [10] was > 100 µM (inactive), the GI50 [11] was > 100 µM (inactive) and the GI50 [53] was > 100 µM (inactive). The GI50 [12] was > 100 µM (inactive), the GI50 [13] was > 100 µM (inactive) and the GI50 [14] was > 100 µM (inactive). For the same molecule, the GI50 [15] was > 100 µM (inactive), the GI50 [16] was > 100 µM (inactive) and the GI50 [17] was > 100 µM (inactive). The GI50 [18] was > 100 µM (inactive), the GI50 [19] was > 100 µM (inactive) and the GI50 [20] was > 100 µM. The GI50 [21] was > 100 µM (inactive), the GI50 [22] was > 100 µM (inactive) and the GI50 [23] was > 100 µM (inactive). The GI50 [24] was > 100 µM (inactive), the GI50 [25] was > 100 µM (inactive) and the GI50 [26] was > 100 µM (inactive). For the same molecule, the GI50 [27] was 49.9 µM (inactive), the GI50 [28] was > 100 µM (inactive) and the GI50 [29] was > 100 µM (inactive). The GI50 [30] was > 100 µM (inactive), the GI50 [54] was > 100 µM (inactive) and the GI50 [31] was > 100 µM (inactive). The GI50 [32] was > 100 µM (inactive), the GI50 [33] was > 100 µM (inactive) and the GI50 [34] was > 100 µM (inactive). The GI50 [35] was > 100 µM (inactive), the GI50 [36] was > 100 µM (inactive) and the GI50 [55] was > 100 µM (inactive). For the same molecule, the GI50 [37] was > 100 µM (inactive), the GI50 [38] was > 100 µM (inactive) and the GI50 [39] was > 100 µM (inactive). The GI50 [58] was > 100 µM (inactive), the GI50 [56] was > 100 µM (inactive) and the GI50 [40] was > 100 µM (inactive). The GI50 [41] was > 100 µM (inactive), the GI50 [42] was > 100 µM (inactive) and the GI50 [43] was > 100 µM (inactive). The GI50 [44] was > 100 µM (inactive), the GI50 [59] was > 100 µM (inactive) and the GI50 [45] was > 100 µM (inactive). The GI50 [46] was > 100 µM (inactive), the GI50 [47] was > 100 µM (inactive) and the GI50 [48] was > 100 µM (inactive). The GI50 [49] was > 100 µM (inactive), the GI50 [57] was > 100 µM (inactive) and the GI50 [50] was > 100 µM (inactive).
